The record followed here is US20240423981A1, “TREATMENT OF HCM WITH PYRIMIDINEDIONE COMPOUNDS” (MyoKardia, Inc., priority 2017, published 2024).

This data set deals with subjects with clinically stable HCM. Description: Study Compound 1-001 (MYK-461-001): SAD trial in HCM patients. The following applies: for LVOT Gradient Post-dose: upon provocation. It counts as in vivo, human. The method, then: Three clinical studies have investigated the safety and tolerability of Compound 1 to date; conduct of 2 studies has completed and 1 study is ongoing. A double-blind, placebo-controlled, single ascending-dose study (SAD) (Compound 1-002) was conducted in healthy men. Subjects received single doses ranging from 1 mg to 48 mg. Conduct of an open-label sequential-group SAD study in subjects with clinically stable HCM (Compound 1-001) is also complete; single doses of up to 144 mg were administered. In addition, a double-blind, placebo-controlled, multiple ascending-dose (MAD) study (Compound 1-003) is being conducted in which healthy adult subjects have received multiple doses of Compound 1 up to 25 mg once daily (QD) for up to 28 days.
In Study MYK-461-001, single doses of up to 144 mg were administered to 15 subjects with HCM. […] In terms of causality assessment, there are no nonclinical or other clinical data to implicate Compound 1 in cardiac ion channel current modulation, or cardiac impulse generation or conduction. […] Other potential contributions to the event include chronic […] with metoprolol succinate 150 mg QD, and the observation that the subject inadvertently performed the Valsalva maneuver during the handgrip strength assessment immediately prior to the event.
LVOT obstruction was resolved in patients following a single dose of Compound 1, as shown in the results in Table 2. […] Each patient was administered single 96 mg dose of Compound 1. Both patients' gradients were resolved following dosing.

As to `CC(C)n1c(=O)cc(N[C@@H](C)c2ccccc2)[nH]c1=O` [Compound 1, (S)-3-Isopropyl-6-((1-phenylethyl)amino) pyrimidine-2, 4(1H,3H)-dione], the Responders % turned out to be 50% (48 mg single dose cohort), 83% (96 mg single dose cohort) and 80% (144 mg single dose cohort). Further, the Responders n is 2/4 (48 mg single dose cohort), 5/6 (96 mg single dose cohort) and 4/5 (144 mg single dose cohort). Where the note is “2 subjects, single 96 mg dose”, the “LVOT gradients following Valsalva after dosing” value is recorded as less than 10 mm Hg. The “LVOT Gradient % Decrease” value is “(79%)” (Patient 1, single 96 mg dose) and “(82%)” (Patient 2, single 96 mg dose). For the same compound, the “LVOT Gradient Post-dose” value stood at 9 mmHg (Patient 1, single 96 mg dose, pre-dose 42) and 5 mmHg (Patient 2, single 96 mg dose, pre-dose 28). Further, the “proof of mechanism: LV contractility” value (all subjects with HCM, single doses 48-144 mg) is on record as “reduced LV contractility by at least 1 of 3 independent echocardiographic measures”. Also, the “number of adverse events (AEs)” value (human, in vivo) is given as 35. For the same compound, under “human, in vivo”, the “severity of adverse events” value was “all mild to moderate”. In addition, the tolerability entry (single doses of up to 144 mg, 15 subjects with HCM) is listed as “well tolerated without deaths, withdrawals due to AEs, or dose-related treatment-emergent AEs, except for 1 of 5 subjects who received the 144 mg dose”. For the same compound, the “LVOT obstruction after a single dose” value (two subjects with LVOT pressure gradient, single 96 mg dose) is “resolved”.
